Values joined by “and” are separate entries in the source; they are usually repeats but may differ in a detail not shown here. Identical values can stand only once.
Tests used:
[1] = system: C57BL6 female mice; experiment: Cumulus oocyte complex yield after PMSG, cisplatin with or without NMN; format: in vivo; settings: per mouse, single dose cisplatin 5 mg/kg i.p. and/or NMN 2 g/L drinking water, two months later
Method: To assess oocyte yield, and mice were hormonally stimulated to superovulated by intraperitoneal injection with 7.5 IU/mL of Pregnant Mare's Serum Gonadotropin (PMSG) (Folligon; Intervet, Boxmeer, Holland) to stimulate follicular growth. After 44-46 hours, ovaries were collected in HEPES-buffered minimum essential medium (aMEM; Gibco Life Technologies, Grand Island, N.Y.) supplemented with 50 µM of 3-isobuty-1-methylxanthine (IBMX) (Sigma aldrich, NSW, AU) (M2 medium) to maintain meitotic arrest at germinal vesicle stage. Cumulus oocyte complexes (COCs) were isolated from preovulatory follicles using a 27-gauge needle and collected using flame-pulled borosilicate Pasteur pipettes in M2 medium supplemented with 3 mg/ml bovine serum albumin (BSA; Sigma Aldrich, St. Louis, Mo.) and 100 μM IBMX (Sigma Aldrich). Cumulus oocyte complexes (COCs) were mechanically denuded of cumulus cells by pipetting, and the denuded oocytes were transferred to another dish containing a drop of fresh M2-medium plus IBMX on heat block with 37° C. with lid to protect oocytes from light. […]

[2] = system: oocytes; experiment: Meiotic progression (GVBD, PBE) of harvested oocytes, cisplatin with or without NMN; format: in vivo, mice; settings: cisplatin and/or NMN
Method: Once harvested from ovaries, oocytes were stored in IBMX media to prevent progression into meiosis. Once released from IBMX, meiotic progression was assessed by the proportions of oocytes achieving germinal vesicle breakdown (GVBD) for meiosis I, and polar body extrusion (PBE) for meiosis II, with results shown in FIGS. 7 and 8 and Tables 2 and 3.
Again, as in Example 2 above, the oocytes which were harvested from these studies were allowed to progress down meiosis, in order to assess meiotic progression rates (FIGS. 16 and 17 and Table 7 and 8).

[3] = system: C57BL6 females; experiment: Reversal design: oocyte yield, cisplatin followed by NMN 4 weeks later; format: in vivo, mice; settings: cisplatin 5 mg/kg i.p., per mouse
Method: To assess oocyte yield, and mice were hormonally stimulated to superovulated by intraperitoneal injection with 7.5 IU/mL of Pregnant Mare's Serum Gonadotropin (PMSG) (Folligon; Intervet, Boxmeer, Holland) to stimulate follicular growth. After 44-46 hours, ovaries were collected in HEPES-buffered minimum essential medium (aMEM; Gibco Life Technologies, Grand Island, N.Y.) supplemented with 50 µM of 3-isobuty-1-methylxanthine (IBMX) (Sigma aldrich, NSW, AU) (M2 medium) to maintain meitotic arrest at germinal vesicle stage. Cumulus oocyte complexes (COCs) were isolated from preovulatory follicles using a 27-gauge needle and collected using flame-pulled borosilicate Pasteur pipettes in M2 medium supplemented with 3 mg/ml bovine serum albumin (BSA; Sigma Aldrich, St. Louis, Mo.) and 100 μM IBMX (Sigma Aldrich). Cumulus oocyte complexes (COCs) were mechanically denuded of cumulus cells by pipetting, and the denuded oocytes were transferred to another dish containing a drop of fresh M2-medium plus IBMX on heat block with 37° C. with lid to protect oocytes from light.
Next, we decided to investigate whether NMN treatment delivered some time following chemotherapy treatment could actively reverse chemotherapy induced infertility. […]

[4] = biological target: NADH:quinone oxidoreductase (NQ01) (Homo sapiens, UniProt P15559); settings: cited from earlier work
[5] = biological target: T1, CD38 (Homo sapiens, UniProt P28907); settings: in vitro; cited from earlier work
T1 sequence (P28907 1-300): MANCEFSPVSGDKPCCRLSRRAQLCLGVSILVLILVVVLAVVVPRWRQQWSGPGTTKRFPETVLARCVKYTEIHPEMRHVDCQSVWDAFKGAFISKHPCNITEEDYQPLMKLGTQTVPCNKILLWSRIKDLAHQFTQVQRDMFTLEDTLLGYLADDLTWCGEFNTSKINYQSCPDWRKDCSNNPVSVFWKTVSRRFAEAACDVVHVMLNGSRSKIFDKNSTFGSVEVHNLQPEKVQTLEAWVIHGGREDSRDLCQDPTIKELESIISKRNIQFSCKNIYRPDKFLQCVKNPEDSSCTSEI

[6] = biological target: NAMPT (Homo sapiens, UniProt P43490); settings: in vitro; cited from earlier work
[7] = system: C57BL6 female mice; experiment: Cumulus oocyte complex yield after PMSG superovulation, doxorubicin with or without NMN; format: in vivo; settings: per mouse, single dose doxorubicin 10 mg/kg i.p. and/or NMN 2 g/L drinking water, 2 months post doxorubicin
Method: To assess oocyte yield, and mice were hormonally stimulated to superovulated by intraperitoneal injection with 7.5 IU/mL of Pregnant Mare's Serum Gonadotropin (PMSG) (Folligon; Intervet, Boxmeer, Holland) to stimulate follicular growth. After 44-46 hours, ovaries were collected in HEPES-buffered minimum essential medium (aMEM; […] Sigma Aldrich, St. Louis, Mo.) and 100 μM IBMX (Sigma Aldrich). […] NMN was delivered through addition to drinking water at 2 g/L, for a final dose of approximately 165 mg/kg. Administration of NMN began one day prior to doxorubicin administration. […] Ovaries were then punctured to release MI oocytes. In a separate cohort of animals, the same experiment was repeated using animals treated with the platinum based chemotherapy drug cisplatin. In FIG. 6 and Table 1, numbers of cumulus oocyte complexes are listed.

[8] = system: oocytes; experiment: Meiotic progression (GVBD, PBE) of harvested oocytes, doxorubicin with or without NMN; format: in vivo, mice; settings: doxorubicin and/or NMN
Description: Once harvested from ovaries, oocytes were stored in IBMX media to prevent progression into meiosis.

[9] = system: C57BL6 female mice; experiment: Mating trial after doxorubicin with or without NMN co-treatment; format: in vivo; settings: for Number of mating rounds required to achieve pregnancy: the values are: cumulative % of females pregnant by round
Method: Following oocyte counting and analysis of oocyte meiotic progression, as well as a separate cohort of animals for histological ovarian analysis, a separate cohort of animals were treated as indicated, and mated with stud males of proven track record, to assess the ability of animals to deliver live births following chemotherapy treatment in the presence of absence of NMN co-treatment.

[10] = system: wild-type and NMNAT1-Tg female mice; experiment: Oocyte yield following doxorubicin in wild-type or NMNAT1-Tg mice; format: in vivo; settings: 10 mg/kg i.p., two months later, PMSG, per mouse
Method: As in Example 2, 7 week-old female wild-type (“WT”) control or their littermates overexpressing NMNAT1 (“NMNAT1-Tg”) were treated with doxorubicin (10 mg/kg, i.p. injection). […] Two months later, animals were super-ovulated with PMSG, euthanased, and ovaries punctured to release MI oocytes, which were counted (FIG. 18 and Table 9).

[11] = system: C57BL6 females; experiment: Reversal design: primordial follicle counts in ovarian histology sections; format: in vivo, mice; settings: doxorubicin 10 mg/kg i.p., NMN in drinking water started four weeks later for 4 weeks; per mouse
Description: Ovaries were dissected from freshly euthanased animals, and preserved in 10% neutral buffered formalin for 24 hr, followed by 70% ethanol, until embedding in paraffin blocks. Blocks were sectioned on a microtome and subjected to haematoxylin and eosin (H&E) staining. Primordial follicles were manually counted by a blinded investigator.
Next, we decided to investigate whether NMN treatment delivered some time following chemotherapy treatment could actively reverse chemotherapy induced infertility. […] Four weeks later, they received NMN in their drinking water, for another 4 weeks, prior to being euthanased for either oocyte studies or ovarian histological analysis. The rationale of this experimental design is to investigate whether NMN has the ability to induce regeneration of the ovary. According to the standard dogma of reproductive biology, mammals are born with a set number of follicles which are slowly released as oocytes over the course of a lifetime, with the ovaries incapable of regenerating new follicles.

Sequence of NAMPT (P43490 whole entry, species assumed): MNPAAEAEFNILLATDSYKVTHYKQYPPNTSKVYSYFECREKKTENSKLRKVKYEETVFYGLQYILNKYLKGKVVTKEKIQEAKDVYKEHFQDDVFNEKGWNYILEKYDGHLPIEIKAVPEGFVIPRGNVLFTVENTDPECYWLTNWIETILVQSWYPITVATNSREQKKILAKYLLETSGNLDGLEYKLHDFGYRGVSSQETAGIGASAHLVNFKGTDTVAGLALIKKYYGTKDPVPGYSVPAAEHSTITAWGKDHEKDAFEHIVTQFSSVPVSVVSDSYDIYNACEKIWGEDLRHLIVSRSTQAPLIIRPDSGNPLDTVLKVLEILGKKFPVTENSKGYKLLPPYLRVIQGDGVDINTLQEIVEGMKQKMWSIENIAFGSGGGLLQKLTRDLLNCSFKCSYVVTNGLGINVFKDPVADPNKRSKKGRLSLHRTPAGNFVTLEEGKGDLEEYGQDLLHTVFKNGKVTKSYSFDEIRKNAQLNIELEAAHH
Sequence of NADH:quinone oxidoreductase (NQ01) (P15559 whole entry): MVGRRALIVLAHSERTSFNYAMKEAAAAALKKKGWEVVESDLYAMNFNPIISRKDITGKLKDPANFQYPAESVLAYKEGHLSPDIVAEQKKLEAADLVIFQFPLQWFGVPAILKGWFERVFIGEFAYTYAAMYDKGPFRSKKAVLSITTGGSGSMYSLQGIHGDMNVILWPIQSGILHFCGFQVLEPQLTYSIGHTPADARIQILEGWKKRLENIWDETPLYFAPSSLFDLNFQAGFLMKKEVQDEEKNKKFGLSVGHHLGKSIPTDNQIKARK

N.N.[Cl][Pt][Cl] [cisplatin]
Numbers of cumulus oocyte complexes released from mice [1]: reduces oocyte yield and 10 and 5 and 6 and 0 and 4 and 9
Proportion of harvested oocytes achieving germinal vesicle breakdown ([2]; 1 h after release from IBMX): 43 % of total
Proportion of harvested oocytes achieving germinal vesicle breakdown ([2]; 2 h after release from IBMX): 100 % of total
Proportion of harvested oocytes achieving polar body extrusion ([2]; 14 hr following completion of GVBD): 40 % of total
Proportion of harvested oocytes achieving polar body extrusion ([2]; 16 hr following completion of GVBD): 70 % of total
Proportion of harvested oocytes achieving polar body extrusion ([2]; 20 hr following completion of GVBD): 85 % of total
Oocyte yield [3]: 6 and 5 (2×) and 2 and 4

CC1(C)CCC2=C(O1)c1ccccc1C(=O)C2=O [β-lapachone, 3,4-dihydro-2,2-dimethyl-2H-napthol[1,2-b]pyran-5,6-dione]
Effect on NQ01 [4]: activates the enzyme NADH:quinone oxidoreductase (NQ01)

O=c1cc(-c2ccc(O)cc2)oc2cc(O)cc(O)c12 [apigenin, 5,7-dihydroxy-2-(4-hydroxyphenyl)-4H-1-benzopyran-4-one]
Inhibition of CD38 activity [5]: inhibitors of CD38 activity in vitro

O=c1c(O)c(-c2ccc(O)c(O)c2)oc2cc(O)cc(O)c12 [quercetin, 2-(3,4-dihydroxyphenyl)-3,5,7-trihydroxy-4H-chromen-4-one]
Inhibition of CD38 activity [5]: inhibitors of CD38 activity in vitro

OC(CNc1ccccc1)Cn1c2ccc(Br)cc2c2cc(Br)ccc21 (stereo not shown) [P7C3]
Effect on NAMPT activity [6]: enhances activity of NAMPT in vitro

COc1cccc2c1C(=O)c1c(O)c3c(c(O)c1C2=O)C[C@@](O)(C(=O)CO)C[C@@H]3O[C@H]1C[C@H](N)[C@H](O)[C@H](C)O1 [Dox, doxorubicin]
Numbers of cumulus oocyte complexes released from mice [7]: 1 and 8 and 9 and 3 and 6 and 7 and 5
Proportion of harvested oocytes achieving germinal vesicle breakdown ([8]; 1 h after release from IBMX): 19 % of total
Proportion of harvested oocytes achieving germinal vesicle breakdown ([8]; 2 h after release from IBMX): 92 % of total
Proportions of oocytes achieving polar body extrusion ([8]; 14 hr following GVBD): 21
Proportions of oocytes achieving polar body extrusion ([8]; 16 hr following GVBD): 52
Proportions of oocytes achieving polar body extrusion ([8]; 20 hr following GVBD): 81
Number of mating rounds required to achieve pregnancy ([9]; Round 0): 0%
Number of mating rounds required to achieve pregnancy ([9]; Round 1): 60%
Number of mating rounds required to achieve pregnancy ([9]; Round 2): 90%
Number of mating rounds required to achieve pregnancy ([9]; Round 3): 90%
Number of live pups born per litter ([9]; per litter, female C57BL6 mice treated with doxorubicin and/or NMN, mated): strong reduction
Oocyte yield following doxorubicin treatment ([10]; NMNAT1-Tg mice): 13 (2×) and 12 and 11 and 15 and 10 (2×) and 18
Oocyte yield following doxorubicin treatment ([10]; wild-type mice): 1 (2×) and 4 (2×) and 2 and 7 and 9 (2×) and 3
Primordial follicle numbers in ovarian histology sections [11]: 34 and 50 and 49 and 41

Reference: US20200368198A1, “METHODS FOR INCREASING FERTILITY” (NEWSOUTH INNOVATIONS PTY LIMITED, priority 2017, published 2020)
